Reference: patent US7273867B2, “Phenyl derivatives” (Merck Patent GmbH, priority 2001, dated 2007)

Tests used:
[1] = molecular target: factor Xa (Homo sapiens, UniProt P00742); experiment: Inhibition of factor Xa; assay type: biochemical
Description: The inhibition of factor Xa by the compounds according to the invention and the measurement of the anticoagulant and antithrombotic activity can be determined by conventional in-vitro or in-vivo methods. A suitable method is described, for example, by J. Hauptmann et al. in Thrombosis and Haemostasis 1990, 63, 220-223.
The inhibition of factor Xa can be measured, for example, by the method of T. Hara et al. in Thromb. Haemostas. 1994, 71, 314-319.

[2] = molecular target: T1, factor VIIa (Homo sapiens, UniProt P08709); experiment: Inhibition of factor VIIa; assay type: biochemical
T1 sequence (P08709 213-466 limits assumed): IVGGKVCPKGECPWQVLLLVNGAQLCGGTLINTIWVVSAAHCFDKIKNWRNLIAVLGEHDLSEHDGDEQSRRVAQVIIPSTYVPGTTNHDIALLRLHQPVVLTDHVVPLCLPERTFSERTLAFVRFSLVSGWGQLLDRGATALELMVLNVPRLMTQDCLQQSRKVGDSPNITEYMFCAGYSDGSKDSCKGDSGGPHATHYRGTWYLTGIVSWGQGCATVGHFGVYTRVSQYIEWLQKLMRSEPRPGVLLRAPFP
T1 sequence (P08709 61-212 limits assumed): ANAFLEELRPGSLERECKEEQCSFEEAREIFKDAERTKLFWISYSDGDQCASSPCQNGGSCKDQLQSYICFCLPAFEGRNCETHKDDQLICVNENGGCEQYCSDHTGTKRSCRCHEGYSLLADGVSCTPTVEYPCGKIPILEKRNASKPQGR
Description: Coagulation factor VIIa initiates the extrinsic part of the coagulation cascade after binding to tissue factor and contributes to the activation of factor X to give factor Xa. Inhibition of factor VIIa thus prevents the formation of factor Xa and thus subsequent thrombin formation. The inhibition of factor VIIa by the compounds according to the invention and the measurement of the anticoagulant and antithrombotic activity can be determined by conventional in-vitro or in-vivo methods. A conventional method for the measurement of the inhibition of factor VIIa is described, for example, by H. F. Ronning et al. in Thrombosis Research 1996, 84, 73-81.

factor Xa, sequence (P00742 235-488 limits assumed): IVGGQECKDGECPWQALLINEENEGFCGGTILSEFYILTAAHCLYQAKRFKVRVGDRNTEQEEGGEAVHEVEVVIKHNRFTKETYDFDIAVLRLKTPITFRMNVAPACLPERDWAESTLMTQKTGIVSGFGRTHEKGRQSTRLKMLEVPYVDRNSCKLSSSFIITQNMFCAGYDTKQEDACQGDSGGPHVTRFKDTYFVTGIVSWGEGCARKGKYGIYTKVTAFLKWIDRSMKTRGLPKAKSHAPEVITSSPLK
factor Xa, sequence (P00742 41-179 limits assumed): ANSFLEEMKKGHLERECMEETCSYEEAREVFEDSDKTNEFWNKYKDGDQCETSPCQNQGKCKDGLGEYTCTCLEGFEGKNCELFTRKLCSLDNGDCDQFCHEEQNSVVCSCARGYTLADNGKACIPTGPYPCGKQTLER

N=C(N)c1cccc(OC(C(=O)Nc2ccc(N3CCOCC3)cc2)c2ccccc2)c1 (stereo not shown) [2-(3-amidinophenoxy)-N-(4-morpholin-4-ylphenyl)-2-phenylacetamide]
IC50 [1]: 90 nM | IC50 [2]: 60 nM

CCCC(Oc1cccc(C(=N)N)c1)C(=O)Nc1ccc(N2CCOCC2)cc1 (stereo not shown) [2-(3-amidinophenoxy)-N-(4-morpholin-4-ylphenyl)valeramide]
IC50 [1]: 300 nM | IC50 [2]: 490 nM

CCCC(Oc1cccc(C(=N)N)c1)C(=O)Nc1ccc(N2CCCCC2=O)cc1 (stereo not shown) [2-(3-amidinophenoxy)-N-[4-(2-oxopiperidin-1-yl)phenyl]valeramide]
IC50 [1]: 70 nM | IC50 [2]: 33 nM

N=C(N)c1cccc(OC(C(=O)Nc2ccc(N3CCCC3=O)cc2)c2ccccc2)c1 (stereo not shown) [2-(3-amidinophenoxy)-N-[4-(2-oxopyrrolidin-1-yl)phenyl]-2-phenylacetamide]
IC50 [1]: 65 nM | IC50 [2]: 39 nM

CCCC(Oc1cccc(C(=N)N)c1)C(=O)Nc1ccc(N2CCCC2=O)cc1 (stereo not shown) [2-(3-amidinophenoxy)-N-[4-(2-oxopyrrolidin-1-yl)phenyl]valeramide]
IC50 [1]: 130 nM | IC50 [2]: 83 nM

CC(C)CC(Nc1cccc(C(=N)N)c1)C(=O)Nc1ccc(N(C)C)cc1 (stereo not shown) [2-(3-amidinophenylamino)-N-(4-dimethylaminophenyl)-4-methylvaleramide]
IC50 [1]: 160 nM | IC50 [2]: 21 nM

N=C(N)c1cccc(NC(C(=O)Nc2ccc(N3CCOCC3)cc2)c2ccccc2)c1 (stereo not shown) [2-(3-amidinophenylamino)-N-(4-morpholin-4-ylphenyl)-2-phenylacetamide]
IC50 [1]: 34 nM | IC50 [2]: 22 nM

N=C(N)c1cccc(OC(C(=O)Nc2ccc(N3CCCCC3=O)cc2)c2ccccc2)c1 (stereo not shown) [EMD 388547, 2-(3-amidinophenoxy)-N-[4-(2-oxopiperidin-1-yl)phenyl]-2-phenylacetamide]
IC50 [1]: 32 nM | IC50 [2]: 14 nM
